# Active and inactive are the calls of the source. The rule behind the calls is not given here.
# Legend:
# [1] = target: ALK tyrosine kinase receptor (Homo sapiens, UniProt Q9UM73); assay: Inhibition of ALK (unknown origin)
# [2] = target: Platelet-derived growth factor receptor alpha (Homo sapiens, UniProt P16234); assay: Inhibition of PDGFRa (unknown origin)
# [3] = target: Proto-oncogene tyrosine-protein kinase receptor Ret (Homo sapiens, UniProt P07949); assay: Inhibition of RET (unknown origin)
# [4] = target: Leucine-rich repeat serine/threonine-protein kinase 2 (Homo sapiens, UniProt Q5S007); assay: Inhibition of human LRRK2 (1885 to 2132) using 5-Fluo-Ahx-RLGRDKYKTLRQIRQGNTK-OH as substrate after 60 mins by fluorescence assay
# [5] = target: Vascular endothelial growth factor receptor 2 (Homo sapiens, UniProt P35968); assay: Inhibition of KDR (unknown origin)
# [6] = target: Tyrosine-protein kinase Lck (Homo sapiens, UniProt P06239); assay: Inhibition of LCK (unknown origin)
# [7] = Solubility of the compound at pH 6.8; type: physicochemical; details: buffer
# Mus musculus [8] = assay: Binding affinity to LRRK2 in C57BL/6 mouse brain at 90 mg/kg, iv after 1 hr by pull down assay; type: functional, organism-based; parameters: dose 90 mg/kg
# [9] = target: Leucine-rich repeat serine/threonine-protein kinase 2 (Mus musculus) (UniProt Q5S006); assay: Binding affinity to LRRK2 in mouse C2C12 cells at 1 uM after 30 mins by competition pull down assay; type: cell-based
# [10] = target: Leucine-rich repeat serine/threonine-protein kinase 2 (Mus musculus) (UniProt Q5S006); assay: Binding affinity to LRRK2 in C57BL/6 mouse brain at 1 uM after 30 mins by competition pull down assay; type: tissue-based
# Mus musculus [11] = assay: Binding affinity to LRRK2 in po dosed C57BL/6 mouse brain after 2 hrs by pull down assay; type: functional, organism-based
# Mus musculus [12] = assay: Binding affinity to LRRK2 in C57BL/6 mouse brain at 10 to 180 mg/kg, po after 2 hrs by pull down assay relative to vehicle-treated control; type: functional, organism-based
# Chain of Tyrosine-protein kinase Lck (P06239 whole entry): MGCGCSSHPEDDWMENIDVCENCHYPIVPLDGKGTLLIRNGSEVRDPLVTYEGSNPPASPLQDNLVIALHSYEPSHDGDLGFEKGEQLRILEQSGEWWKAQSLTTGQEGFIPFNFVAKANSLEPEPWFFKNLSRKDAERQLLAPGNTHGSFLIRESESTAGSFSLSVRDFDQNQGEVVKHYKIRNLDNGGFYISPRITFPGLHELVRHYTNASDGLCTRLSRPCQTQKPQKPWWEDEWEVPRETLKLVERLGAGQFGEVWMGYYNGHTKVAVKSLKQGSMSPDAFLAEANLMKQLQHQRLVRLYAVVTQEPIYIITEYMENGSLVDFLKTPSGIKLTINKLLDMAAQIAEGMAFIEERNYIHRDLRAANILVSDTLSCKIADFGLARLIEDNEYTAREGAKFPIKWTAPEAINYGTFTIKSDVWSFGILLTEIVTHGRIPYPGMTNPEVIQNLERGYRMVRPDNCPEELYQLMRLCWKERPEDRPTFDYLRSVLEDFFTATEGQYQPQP
# Chain of Proto-oncogene tyrosine-protein kinase receptor Ret (P07949 whole entry): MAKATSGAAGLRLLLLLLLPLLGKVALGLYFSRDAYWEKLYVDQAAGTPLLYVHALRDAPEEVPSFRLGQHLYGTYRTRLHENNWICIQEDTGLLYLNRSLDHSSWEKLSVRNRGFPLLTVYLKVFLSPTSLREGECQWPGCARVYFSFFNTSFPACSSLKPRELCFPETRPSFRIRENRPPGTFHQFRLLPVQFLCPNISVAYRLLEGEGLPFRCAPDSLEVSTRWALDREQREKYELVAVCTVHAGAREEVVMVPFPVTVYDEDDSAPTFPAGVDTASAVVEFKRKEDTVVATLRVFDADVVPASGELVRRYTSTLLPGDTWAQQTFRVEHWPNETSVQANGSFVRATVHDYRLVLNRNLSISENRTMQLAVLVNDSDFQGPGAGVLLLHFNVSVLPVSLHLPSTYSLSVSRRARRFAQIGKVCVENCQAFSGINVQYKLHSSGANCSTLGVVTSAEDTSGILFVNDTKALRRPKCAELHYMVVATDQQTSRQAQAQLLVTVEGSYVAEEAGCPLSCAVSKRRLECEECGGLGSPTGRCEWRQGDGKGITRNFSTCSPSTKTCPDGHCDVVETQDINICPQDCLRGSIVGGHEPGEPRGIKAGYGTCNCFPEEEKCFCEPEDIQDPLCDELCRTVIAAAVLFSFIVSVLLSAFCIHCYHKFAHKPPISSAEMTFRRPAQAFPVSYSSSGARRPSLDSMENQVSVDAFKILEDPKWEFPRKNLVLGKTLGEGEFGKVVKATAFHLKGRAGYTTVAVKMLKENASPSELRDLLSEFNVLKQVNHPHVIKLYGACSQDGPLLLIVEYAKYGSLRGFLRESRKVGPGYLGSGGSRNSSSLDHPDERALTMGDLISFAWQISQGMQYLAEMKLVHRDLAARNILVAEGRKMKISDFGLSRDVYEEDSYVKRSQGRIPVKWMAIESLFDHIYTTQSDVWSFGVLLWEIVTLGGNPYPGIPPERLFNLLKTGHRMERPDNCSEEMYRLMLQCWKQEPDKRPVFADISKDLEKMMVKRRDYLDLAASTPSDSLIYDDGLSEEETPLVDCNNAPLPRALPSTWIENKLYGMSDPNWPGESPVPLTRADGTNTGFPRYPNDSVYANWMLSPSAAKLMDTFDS
# Chain of Platelet-derived growth factor receptor alpha (P16234 whole entry): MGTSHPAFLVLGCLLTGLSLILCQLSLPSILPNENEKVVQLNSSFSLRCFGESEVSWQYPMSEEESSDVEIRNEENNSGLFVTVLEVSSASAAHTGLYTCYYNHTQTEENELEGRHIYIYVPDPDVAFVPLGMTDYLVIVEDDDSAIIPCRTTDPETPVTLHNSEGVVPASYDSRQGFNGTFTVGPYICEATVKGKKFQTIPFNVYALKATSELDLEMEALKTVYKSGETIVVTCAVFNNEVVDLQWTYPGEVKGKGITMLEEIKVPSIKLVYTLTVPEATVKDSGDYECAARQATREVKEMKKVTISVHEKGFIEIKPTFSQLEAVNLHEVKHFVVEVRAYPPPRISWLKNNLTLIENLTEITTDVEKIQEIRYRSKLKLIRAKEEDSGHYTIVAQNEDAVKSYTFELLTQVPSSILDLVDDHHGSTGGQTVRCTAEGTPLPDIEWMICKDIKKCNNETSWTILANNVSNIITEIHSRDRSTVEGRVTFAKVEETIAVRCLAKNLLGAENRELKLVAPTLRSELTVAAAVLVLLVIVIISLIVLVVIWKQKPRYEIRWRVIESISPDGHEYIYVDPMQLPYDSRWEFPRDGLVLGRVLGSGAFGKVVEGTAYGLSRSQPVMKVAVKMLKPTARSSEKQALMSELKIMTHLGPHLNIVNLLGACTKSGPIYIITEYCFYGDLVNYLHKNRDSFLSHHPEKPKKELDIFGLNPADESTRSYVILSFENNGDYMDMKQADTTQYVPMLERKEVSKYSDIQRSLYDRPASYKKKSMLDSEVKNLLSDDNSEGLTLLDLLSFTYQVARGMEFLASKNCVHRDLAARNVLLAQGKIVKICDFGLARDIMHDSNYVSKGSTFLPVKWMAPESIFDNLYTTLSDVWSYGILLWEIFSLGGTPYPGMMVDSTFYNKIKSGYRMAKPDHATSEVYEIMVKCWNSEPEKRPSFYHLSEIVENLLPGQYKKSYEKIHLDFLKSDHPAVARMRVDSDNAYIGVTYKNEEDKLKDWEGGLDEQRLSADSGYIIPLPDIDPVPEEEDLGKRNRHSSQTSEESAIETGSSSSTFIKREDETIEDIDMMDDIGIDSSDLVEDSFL
# Chain of ALK tyrosine kinase receptor (Q9UM73 whole entry): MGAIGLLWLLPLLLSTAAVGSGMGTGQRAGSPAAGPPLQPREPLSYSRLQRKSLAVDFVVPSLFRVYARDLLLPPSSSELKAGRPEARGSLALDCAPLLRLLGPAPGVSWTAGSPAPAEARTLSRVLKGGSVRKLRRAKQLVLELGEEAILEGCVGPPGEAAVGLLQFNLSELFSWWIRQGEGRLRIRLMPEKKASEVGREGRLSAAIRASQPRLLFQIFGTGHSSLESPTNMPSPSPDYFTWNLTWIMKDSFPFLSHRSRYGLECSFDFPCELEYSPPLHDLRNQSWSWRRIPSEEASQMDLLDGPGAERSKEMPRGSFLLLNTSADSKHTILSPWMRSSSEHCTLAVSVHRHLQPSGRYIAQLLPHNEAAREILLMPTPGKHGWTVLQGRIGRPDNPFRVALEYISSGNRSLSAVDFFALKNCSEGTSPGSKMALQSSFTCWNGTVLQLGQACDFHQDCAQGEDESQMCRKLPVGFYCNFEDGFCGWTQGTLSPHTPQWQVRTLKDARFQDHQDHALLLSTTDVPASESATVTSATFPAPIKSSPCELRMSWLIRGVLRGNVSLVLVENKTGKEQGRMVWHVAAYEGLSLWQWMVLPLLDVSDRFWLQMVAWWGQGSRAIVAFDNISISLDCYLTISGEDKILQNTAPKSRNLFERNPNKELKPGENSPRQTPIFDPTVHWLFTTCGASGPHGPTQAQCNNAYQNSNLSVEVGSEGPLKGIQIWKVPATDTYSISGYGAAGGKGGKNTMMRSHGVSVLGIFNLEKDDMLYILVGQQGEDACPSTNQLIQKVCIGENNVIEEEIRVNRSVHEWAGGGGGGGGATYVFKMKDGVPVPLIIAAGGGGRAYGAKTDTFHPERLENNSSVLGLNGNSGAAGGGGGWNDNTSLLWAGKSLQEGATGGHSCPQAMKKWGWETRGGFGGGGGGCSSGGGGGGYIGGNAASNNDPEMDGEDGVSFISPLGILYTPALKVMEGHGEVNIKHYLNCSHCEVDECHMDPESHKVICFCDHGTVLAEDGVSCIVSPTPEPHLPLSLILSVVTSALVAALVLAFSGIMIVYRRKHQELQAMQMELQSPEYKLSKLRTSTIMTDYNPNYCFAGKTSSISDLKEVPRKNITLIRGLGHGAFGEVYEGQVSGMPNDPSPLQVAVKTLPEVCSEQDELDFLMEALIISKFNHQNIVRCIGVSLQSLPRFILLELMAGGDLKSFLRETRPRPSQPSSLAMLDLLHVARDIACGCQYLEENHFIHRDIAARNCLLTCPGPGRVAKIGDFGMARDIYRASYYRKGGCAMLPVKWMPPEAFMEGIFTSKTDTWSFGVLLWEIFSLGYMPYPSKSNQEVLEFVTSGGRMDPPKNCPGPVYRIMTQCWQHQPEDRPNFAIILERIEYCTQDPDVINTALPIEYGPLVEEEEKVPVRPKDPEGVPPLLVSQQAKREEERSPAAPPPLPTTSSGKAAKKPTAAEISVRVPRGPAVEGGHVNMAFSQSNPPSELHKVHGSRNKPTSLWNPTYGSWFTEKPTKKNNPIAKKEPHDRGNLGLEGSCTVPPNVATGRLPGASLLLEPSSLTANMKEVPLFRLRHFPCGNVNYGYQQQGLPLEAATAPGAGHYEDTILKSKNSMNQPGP
Compound,IC50 [1] [nM],IC50 [2] [nM],IC50 [3] [nM],IC50 [4] [nM],IC50 [5] [nM],IC50 [6] [nM],solubility [7] [µg/mL],Activity [9],Activity [10],Activity (Mus musculus [11]),Activity (Mus musculus [8]),Activity (Mus musculus [12])
COc1ccc2c(c1)/C(=C/c1[nH]c3c(c1Cl)CN(C(C)=O)CC3)C(=O)N2,> 10000,–,34,8,87,1100,–,–,–,–,–,–
COc1ccc2c(c1)/C(=C/c1cc3c([nH]1)CCN(C(=O)N1CCOCC1)C3)C(=O)N2C,–,–,–,150,–,–,–,–,–,–,–,–
O=C1Nc2ccc(C(F)(F)F)cc2/C1=C/c1cc2c([nH]1)CCN(C(=O)N1CCOCC1)C2,> 10000,46,140,< 3,83,180,–,–,–,–,–,–
COc1ccc2c(c1)/C(=C/c1cc3c([nH]1)CCN(C(=O)N1CCN(C)CC1)C3)C(=O)N2,550,60,6,9,6,50,15,Active,Active,Dose-dependent effect,inactive,Active
CN1CCC(Nc2ccc3c(c2)/C(=C/c2cc4c([nH]2)CCN(C(=O)N2CCOCC2)C4)C(=O)N3)CC1,76,13,5,< 3,3,7,–,–,–,–,–,–
COc1ccc2c(c1)/C(=C/c1[nH]c(C)c(C(=O)NCCCN)c1C)C(=O)N2,< 1000,< 1000,< 1000,46,< 1000,< 1000,–,–,–,–,–,–
CC(=O)Nc1ccc2c(c1)/C(=C/c1cc3c([nH]1)CCN(C(=O)N1CCOCC1)C3)C(=O)N2,210,91,25,4,7,330,–,–,–,–,–,–
COc1ccc2c(c1)/C(=C/c1cc3c([nH]1)CCN(C(=O)N1CCOCC1)C3)C(=O)N2,660,150,25,3,5,120,–,–,–,–,–,–

# Continued, in another order:
IC50 [1] [nM],IC50 [2] [nM],IC50 [3] [nM],IC50 [4] [nM],IC50 [5] [nM],IC50 [6] [nM],solubility [7] [µg/mL],Activity [9],Activity [10],Activity (Mus musculus [11]),Compound,Activity (Mus musculus [8]),Activity (Mus musculus [12])
> 10000,31,73,< 3,60,1000,–,–,–,–,CC(=O)N1CCc2[nH]c(/C=C3\C(=O)Nc4ccc([N+](=O)[O-])cc43)cc2C1,–,–
1600,< 3,4,7,20,120,–,–,–,–,CC(=O)N1CCc2[nH]c(/C=C3\C(=O)Nc4ccc(C#N)cc43)cc2C1,–,–
370,120,4,11,8,140,–,–,–,–,COc1ccc2c(c1)/C(=C/c1cc3c([nH]1)CCN(C(=O)CCN)C3)C(=O)N2,–,–
1400,540,75,7,16,390,–,–,–,–,COc1ccc2c(c1)/C(=C/c1cc3c([nH]1)CCN(C(=O)c1cnoc1C)C3)C(=O)N2,–,–
3300,1700,150,4,900,1100,< 1,–,–,–,CC(=O)N1CCc2[nH]c(/C=C3\C(=O)Nc4ccc(OC(C)C)cc43)cc2C1,–,–
1500,250,54,14,210,6050,–,–,–,–,COc1ccc2c(c1)/C(=C/c1cc3c([nH]1)CCN(C(C)=O)C3)C(=O)N2,–,–
9500,60,300,31,320,360,–,–,–,–,CC(=O)N1CCc2[nH]c(/C=C3\C(=O)Nc4ccc(C(F)(F)F)cc43)cc2C1,–,–
